Consider three molecules from patent US9630956B2, “Compounds useful as inhibitors of ATR kinase” (Vertex Pharmaceuticals Incorporated, priority 2010, dated 2017).

One test has as its target full-length ATR (Homo sapiens (Human), UniProt Q13535). The test can be described thus: ATR Inhibition Assay (radioactive-phosphate incorporation). The format is biochemical. The settings on record: ATR Inhibition Ki(app); 10 μM ATP, 800 μM target peptide, 5 nM full-length ATR, 25° C. A digest of the protocol: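 Full-length ATR at 5 nM was run in 50 mM Tris/HCl pH 7.5, 10 mM MgCl2 and 1 mM DTT with 10 μM [γ-33P]ATP and 800 μM peptide at 25° C, after a 10 min compound pre-incubation (top final 15 μM, 3-fold dilutions, 7% DMSO). Reactions were stopped at 24 h and counted after phosphocellulose capture. Ki(app) came from non-linear regression of initial rates.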

Test [1] deals with HCT116 colorectal cancer cells. The test can be described thus: Cisplatin Sensitization Assay (96h cell viability MTS). The format is cell-based. The note with it: concentration of compound required to reduce the IC50 of Cisplatin alone by at least 3-fold, 96h MTS. The procedure:
Compounds can be screened for their ability to sensitize HCT116 colorectal cancer cells to Cisplatin using a 96h cell viability (MTS) assay. […] Compounds and Cisplatin are then both added simultaneously to the cell media in 2-fold serial dilutions from a top final concentration of 10 μM as a full matrix of concentrations in a final cell volume of 200 μl, and the cells are then incubated at 37° C. in 5% CO2. After 96h, 40 μl of […] (Promega G358a) is added to each well and the cells are incubated for 1 h at 37° C. in 5% CO2.

Sequence of full-length ATR (Q13535 whole entry): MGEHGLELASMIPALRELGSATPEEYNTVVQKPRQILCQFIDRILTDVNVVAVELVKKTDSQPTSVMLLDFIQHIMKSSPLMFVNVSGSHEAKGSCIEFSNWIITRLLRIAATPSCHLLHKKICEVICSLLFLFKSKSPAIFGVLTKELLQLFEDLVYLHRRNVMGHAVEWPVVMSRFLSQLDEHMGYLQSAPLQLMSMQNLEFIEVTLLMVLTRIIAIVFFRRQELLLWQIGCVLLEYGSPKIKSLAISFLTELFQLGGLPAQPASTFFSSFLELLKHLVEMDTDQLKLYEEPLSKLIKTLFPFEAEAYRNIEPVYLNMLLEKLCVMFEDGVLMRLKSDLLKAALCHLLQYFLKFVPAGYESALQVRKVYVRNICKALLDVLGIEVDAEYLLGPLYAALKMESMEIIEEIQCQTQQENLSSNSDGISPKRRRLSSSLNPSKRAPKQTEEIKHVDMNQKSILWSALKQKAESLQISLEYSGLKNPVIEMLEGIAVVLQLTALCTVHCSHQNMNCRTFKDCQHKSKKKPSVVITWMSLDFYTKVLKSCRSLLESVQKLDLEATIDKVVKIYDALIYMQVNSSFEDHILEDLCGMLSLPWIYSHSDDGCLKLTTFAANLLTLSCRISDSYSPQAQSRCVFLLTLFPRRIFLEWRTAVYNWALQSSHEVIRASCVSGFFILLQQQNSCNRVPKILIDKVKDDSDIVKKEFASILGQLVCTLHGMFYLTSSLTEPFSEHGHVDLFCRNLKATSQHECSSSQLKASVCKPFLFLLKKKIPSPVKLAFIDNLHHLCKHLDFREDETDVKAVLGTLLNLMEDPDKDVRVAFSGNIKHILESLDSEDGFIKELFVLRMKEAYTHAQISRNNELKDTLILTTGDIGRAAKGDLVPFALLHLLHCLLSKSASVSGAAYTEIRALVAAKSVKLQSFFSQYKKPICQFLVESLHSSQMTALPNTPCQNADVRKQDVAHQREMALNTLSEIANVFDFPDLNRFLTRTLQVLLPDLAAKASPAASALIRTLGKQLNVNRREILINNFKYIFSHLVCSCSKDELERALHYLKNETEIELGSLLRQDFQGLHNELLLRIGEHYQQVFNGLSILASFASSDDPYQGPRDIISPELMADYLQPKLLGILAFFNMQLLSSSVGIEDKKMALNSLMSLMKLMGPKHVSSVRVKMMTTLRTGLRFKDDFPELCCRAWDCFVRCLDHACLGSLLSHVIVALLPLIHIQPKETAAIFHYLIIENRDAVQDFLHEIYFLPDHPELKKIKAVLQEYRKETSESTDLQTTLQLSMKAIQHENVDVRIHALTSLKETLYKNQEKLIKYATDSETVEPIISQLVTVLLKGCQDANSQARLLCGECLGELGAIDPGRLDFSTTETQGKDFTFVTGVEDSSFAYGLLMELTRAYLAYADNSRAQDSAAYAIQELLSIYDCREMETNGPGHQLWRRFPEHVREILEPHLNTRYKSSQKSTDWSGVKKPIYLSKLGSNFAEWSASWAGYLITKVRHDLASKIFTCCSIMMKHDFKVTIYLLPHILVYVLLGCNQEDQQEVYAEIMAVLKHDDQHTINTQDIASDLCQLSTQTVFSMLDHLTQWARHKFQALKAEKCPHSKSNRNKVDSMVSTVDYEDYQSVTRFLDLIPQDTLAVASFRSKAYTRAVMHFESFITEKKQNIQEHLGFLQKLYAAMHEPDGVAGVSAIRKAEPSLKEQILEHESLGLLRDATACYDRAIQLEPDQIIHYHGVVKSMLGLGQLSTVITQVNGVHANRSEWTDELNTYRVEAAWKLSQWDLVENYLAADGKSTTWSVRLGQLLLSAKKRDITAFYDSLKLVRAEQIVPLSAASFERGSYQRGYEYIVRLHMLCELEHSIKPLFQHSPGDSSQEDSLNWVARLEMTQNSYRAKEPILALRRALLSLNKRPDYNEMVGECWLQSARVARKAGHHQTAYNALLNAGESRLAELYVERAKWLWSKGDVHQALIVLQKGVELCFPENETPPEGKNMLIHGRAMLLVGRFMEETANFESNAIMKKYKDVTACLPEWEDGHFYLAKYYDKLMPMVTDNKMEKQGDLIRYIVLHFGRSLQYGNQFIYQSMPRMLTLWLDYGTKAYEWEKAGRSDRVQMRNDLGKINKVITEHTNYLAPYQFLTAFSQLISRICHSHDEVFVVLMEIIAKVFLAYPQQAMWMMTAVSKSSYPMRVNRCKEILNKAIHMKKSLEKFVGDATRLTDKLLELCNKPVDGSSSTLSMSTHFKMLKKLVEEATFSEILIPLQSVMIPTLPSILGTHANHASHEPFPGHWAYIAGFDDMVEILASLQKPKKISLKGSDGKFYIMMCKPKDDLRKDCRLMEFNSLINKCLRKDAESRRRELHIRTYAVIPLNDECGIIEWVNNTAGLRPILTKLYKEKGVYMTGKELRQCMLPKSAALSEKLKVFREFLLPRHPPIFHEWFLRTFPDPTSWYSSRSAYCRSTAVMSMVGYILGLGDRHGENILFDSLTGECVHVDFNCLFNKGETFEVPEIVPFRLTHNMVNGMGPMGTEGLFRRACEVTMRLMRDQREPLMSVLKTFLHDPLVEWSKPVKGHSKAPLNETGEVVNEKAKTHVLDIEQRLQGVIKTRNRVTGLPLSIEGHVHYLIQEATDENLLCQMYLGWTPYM

For the molecule `CCC(CC)n1cc(-c2cnc(N)c(-c3cc(-c4ccc(CNC5(C)CC5)cc4)no3)n2)ccc1=O` [Compound I-140], at full-length ATR, the Ki is not above 5 nM. Further, in test [1], the “CP3 shift” value came to 0.156 µM.

For the molecule `CNCc1ccc(-c2cc(-c3nc(-c4ccc(=O)n(C5(C#N)CCCC5)c4)cnc3N)on2)cc1` [Compound I-143], the Ki on full-length ATR was not above 5 nM. Moreover, in test [1], the “CP3 shift” value was found to be 0.01 µM.

For the molecule `CC(C)(C#N)n1cc(-c2cnc(N)c(-c3cc(-c4ccc(CNC5CCOC5)cc4)no3)n2)ccc1=O` (stereo not drawn) [Compound I-145], at full-length ATR, the Ki was not above 5 nM. Moreover, in test [1], the “CP3 shift” value was 0.01 µM.
